Measurements reported in patent EP4790046A1, “NOVEL COMPOUND DERIVED FROM MYRISTICA FRAGRANS, AND ANTICANCER COMPOSITION COMPRISING SAME” (Korea Institute of Science and Technology, priority 2023, dated 2025).

How the values were obtained:
Format in all cases: cell-based
caspase-3 and -7 = experiment: Caspase-3/7 activity assay (Caspase-Glo 3/7), 23132/87 cells; conditions: for Caspase-3/7 activity: RLU relative to DMSO; for caspase-3/7 RLU increase over DMSO: 23132/87
Description: Apoptosis can be activated and progress through either the intrinsic or extrinsic pathway, but caspase-3, the executioner caspase, is involved in most cases. […] Since this enzyme activity is transient, analysis was performed at two time points: 6 hours and 12 hours post-treatment.
Specifically, the Caspase-3/7 activity assay was performed with slight modifications to the manufacturer's protocol (Promega, USA). Briefly, cells were seeded at a density of 5 × 10^3 cells/well in a 96-well plate, cultured for 24 hours, and then treated with the compound at an appropriate concentration for 6 or 12 hours. After treatment, Caspase-Glo 3/7 reagent was added in equal volumes to the treated samples. The plate was then shaken and incubated at room temperature for 2 hours. Enzyme activity was determined by measuring relative light units (RLU) using a Varioskan LUX Multimode Microplate Reader (Thermo Fisher Scientific, USA).

SNU466 = experiment: alamarBlue cell viability (survival rate), SNU466; conditions: SNU466 (glioblastoma), compound 10 µM, 48 hours
Excerpt: A p-value < 0.05 was considered statistically significant.

23132/87 cell line = experiment: Cell cycle distribution (PI/RNase staining, flow cytometry), 23132/87; conditions: 48 hours
Description: Cell cycle distribution was analyzed by DNA staining using FxCycle PI/RNase Staining Solution (Invitrogen, USA). The 23132/87 and SW48 cell lines was seeded at densities of 5 × 10^5 and 7 × 10^5cells/well, respectively, in 6-well plates. After 24 hours of culture, cells were starved overnight in serum-free medium. […] Cells were then harvested, fixed with 70% ethanol, and stained with PI/RNase solution. Samples were analyzed by flow cytometry (BD FACSVerse Cell Analyzer and FlowJo software, BD Biosciences, Franklin Lakes, NJ, USA) based on 10,000 events.
Student's t-test was performed for statistical analysis between the 2 concentrations of the same compound.

C=CCc1cc(OC)c(O[C@H](C)[C@H](c2ccc(O)c(OC)c2)c2ccc(O)c(C(=O)CCCCCCCCc3ccc(O)cc3)c2O)c(OC)c1 [Compound 3, Myricone C]
Caspase-3/7 activity (caspase-3 and -7; 23132/87, 5 µM, 6 h): 0.58 fold
Caspase-3/7 activity (caspase-3 and -7; 23132/87, 5 µM, 12 h): 1.74 fold
Caspase-3/7 activity (caspase-3 and -7; 23132/87, 10 µM, 6 h): 1.81 fold
Caspase-3/7 activity (caspase-3 and -7; 23132/87, 10 µM, 12 h): 1.20 fold
caspase-3/7 RLU increase over DMSO (caspase-3 and -7; 5 µM, 12 hours): 1.74 fold
caspase-3/7 RLU increase over DMSO (caspase-3 and -7; 10 µM, 6 hours): 1.81 fold
Cancer cell line survival rate (%) (SNU466): 1.91%
Cell cycle distribution, G1 (23132/87 cell line; 23132/87, 5 µM): 63.00%
Cell cycle distribution, G2/M (23132/87 cell line; 23132/87, 5 µM): 6.79%
Cell cycle distribution, S (23132/87 cell line; 23132/87, 5 µM): 21.23%
Cell cycle distribution, Sub G1 (23132/87 cell line; 23132/87, 5 µM): 9.15%
Cell cycle distribution, G1 (23132/87 cell line; 23132/87, 10 µM): 68.93%
Cell cycle distribution, G2/M (23132/87 cell line; 23132/87, 10 µM): 6.19%
Cell cycle distribution, S (23132/87 cell line; 23132/87, 10 µM): 14.40%
Cell cycle distribution, Sub G1 (23132/87 cell line; 23132/87, 10 µM): 10.45%
G1 phase increase compared to DMSO (23132/87 cell line; 23132/87, 10 µM): about 10%
G2/M phase decrease compared to DMSO (23132/87 cell line; 23132/87, 10 µM): about 4%
